The target of this experiment is T1, tubulin (Sus scrofa, UniProt P02550+P02554).
T1 construct: Tubulin is purified from pig brain according to published methods; from tissue; host or cells: pig brain
The experiment can be described thus: Evaluation of the inhibition of tubulin polymerization (turbidimetry). Format: biochemical, pig. The following applies: tubulin 10 μm (1 mg/ml), 37° C., turbidity at 350 nm; concentration that inhibits the rate of polymerization by 50%; read-out: Inhibition of tubulin polymerization IC 50 (μm). The method, then:
Tubulin is purified from pig brain according to published methods (Shelanski et al., 1973, Proc. Natl. Acad. Sci. USA, 70, 765-768. Weingarten et al., 1975, Proc. Natl. Acad. Sci. USA, 72, 1858-1862). Briefly, the brains are ground and centrifuged in an extraction buffer. The tubulin contained in the supernatant of the extract undergoes two successive cycles of polymerization at 37° C. and depolymerization at 4° C., before being separated from the MAPs (Microtubule Associated Proteins) by chromatography on a phosphocellulose P11 column (Whatman). The tubulin thus isolated is more than 95% pure. It is stored in a buffer known as RB/2 30% glycerol, the composition of which is 50 mM MES-NaOH [2-(N-morpholino)ethanesulfonic acid], pH 6.8; 0.25 mM MgCl2; 0.5 mM EGTA; 30% glycerol (v/v), 0.2 mM GTP (guanosine-5′-triphosphate).
The polymerization of tubulin to microtubules is monitored by turbidimetry as follows: the tubulin is adjusted to a concentration of 10 μm (1 mg/ml) in RB/2 30% glycerol buffer to which 1 mM GTP and 6 mM MgCl2 are added. The polymerization is triggered by an increase in temperature from 6° C. to 37° C. in a cuvette with an optical path length of 1 cm, placed in a UVIKON 931 spectrophotometer (Kontron) equipped with a thermostatically maintained cuvette holder. The increase in the turbidity of the solution is monitored at 350 nm.
The products are dissolved at 10 mM in DMSO and added at variable concentrations (0.5 to 10 μm) to the tubulin solution before polymerization. The IC50 value is defined as the concentration of product that inhibits the rate of polymerization by 50%.

pIC50: −log10 of the molar value. Counter-ions that a name gives are not always drawn.

T1 sequence (P02550 whole entry): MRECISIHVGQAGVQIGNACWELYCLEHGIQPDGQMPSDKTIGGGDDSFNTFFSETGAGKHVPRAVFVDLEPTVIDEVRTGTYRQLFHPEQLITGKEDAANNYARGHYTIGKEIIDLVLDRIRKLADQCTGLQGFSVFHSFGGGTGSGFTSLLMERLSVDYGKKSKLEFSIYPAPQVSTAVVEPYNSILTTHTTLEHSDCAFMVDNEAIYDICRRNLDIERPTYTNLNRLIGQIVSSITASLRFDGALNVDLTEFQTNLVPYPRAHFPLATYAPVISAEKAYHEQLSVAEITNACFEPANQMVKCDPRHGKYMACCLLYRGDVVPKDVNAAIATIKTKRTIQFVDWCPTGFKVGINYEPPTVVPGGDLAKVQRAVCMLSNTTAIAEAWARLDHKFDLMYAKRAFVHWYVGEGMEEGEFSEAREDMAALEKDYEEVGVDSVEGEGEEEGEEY
T1 sequence (P02554 whole entry): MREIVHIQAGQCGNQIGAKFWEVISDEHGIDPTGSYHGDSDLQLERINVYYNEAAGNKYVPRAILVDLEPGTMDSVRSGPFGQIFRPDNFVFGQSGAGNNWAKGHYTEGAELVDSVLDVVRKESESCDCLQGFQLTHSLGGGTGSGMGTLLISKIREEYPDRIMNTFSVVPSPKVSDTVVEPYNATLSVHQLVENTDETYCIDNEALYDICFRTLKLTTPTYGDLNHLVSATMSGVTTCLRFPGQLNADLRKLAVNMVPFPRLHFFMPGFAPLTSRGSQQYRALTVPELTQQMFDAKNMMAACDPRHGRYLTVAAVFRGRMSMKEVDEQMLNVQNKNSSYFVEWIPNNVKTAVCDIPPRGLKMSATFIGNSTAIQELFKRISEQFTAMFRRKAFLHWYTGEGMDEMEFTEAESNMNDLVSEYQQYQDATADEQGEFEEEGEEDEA

As to `COc1ccc(-n2nc(C)cc2C(=O)N2CCN(c3ccccc3)CC2)cc1` [3/1], the pIC50 is 4.70. Then `CSc1ccccc1N1CCN(C(=O)c2cc(C)nn2-c2ccccc2)CC1` [3/12], with 5.52; and `Cc1cc(C(=O)N2CCN(c3cc(Cl)ccc3C)CC2)n(-c2cccc(Cl)c2)n1` [3/70], with 4.90; and `Cc1cc(C(=O)N2CCN(c3ccc4c(c3)OCCO4)CC2)n(-c2cccc(F)c2)n1` [3/100], with > 4.60. Then `Cc1cc(C(=O)N2CCN(c3ccc(C)c(C)c3)CC2)n(-c2ccc(F)cc2)n1` [3/103], with 4.68; and `Cc1cc(C(=O)N2CCN(c3ccccn3)CC2)n(-c2ccccc2)n1` [3/107], with 4.90. Then `Cc1ccc(C)c(N2CCN(C(=O)c3cc(C)nn3-c3ccccc3)CC2)c1` [3/108], with 5.46; and `Cc1cc(C(=O)N2CCN(c3ccccc3F)CC2)n(-c2ccccc2)n1` [3/111], with 4.90; and `Cc1cccc(-n2nc(C)cc2C(=O)N2CCN(c3cccc(C)c3C)CC2)c1` [3/114], with 6.10.

As to `CCOc1ccccc1N1CCN(C(=O)c2cc(C)nn2-c2cccc(C)c2)CC1` [3/115], the pIC50 was 4.70. For the molecule `Cc1cc(C(=O)N2CCN(c3cc(Cl)ccc3C)CC2)n(-c2ccc(F)cc2)n1` [3/117], the pIC50 is 5.15. With `Cc1cc(C(=O)N2CCN(c3cccc(C)c3C)CC2)n(-c2cccc(Cl)c2)n1` [3/122], the pIC50 is 5.12. Next, `Cc1cc(C(=O)N2CCN(c3cccc4ccccc34)CC2)n(-c2cccc(Cl)c2)n1` [3/124]: 4.92. Then `COc1ccc(Cl)cc1N1CCN(C(=O)c2cc(C)nn2-c2cccc(Cl)c2)CC1` [3/127], with 5.74; and `COc1ccccc1N1CCN(C(=O)c2cc(C)nn2-c2ccc(C)cc2)CC1` [3/130], with > 4.60. Take `COc1cccc(-n2nc(C)cc2C(=O)N2CCN(c3ccccc3C)CC2)c1` [3/134]: the pIC50 was 5.37. Next, `COc1cccc(-n2nc(C)cc2C(=O)N2CCN(c3ccccc3SC)CC2)c1` [3/137]: 5.38; `COc1cccc(N2CCN(C(=O)c3cc(C)nn3-c3ccccc3)CC2)n1` [Example E8, [4-(6-Methoxypyrid-2-yl)piperazin-1-yl](5-methyl-2-phenyl-2H-pyrazol-3-yl)-methanone]: 5.70; `Cc1ccc(C)c(-n2nc(C)cc2C(=O)N2CCN(c3cccc(Cl)c3)CC2)c1` [Example E47, [4-(3-Chlorophenyl)piperazin-1-yl][2-(2,5-dimethylphenyl)-5-methyl-2H-pyrazol-3-yl]methanone]: 5.81. As for `Cc1cc(C(=O)N2CCN(c3cccc(Cl)c3)CC2)n(-c2ccc([N+](=O)[O-])cc2)n1` [Example E49, [4-(3-Chlorophenyl)piperazin-1-yl][5-methyl-2-(4-nitrophenyl)-2H-pyrazol-3-yl]-methanone], the pIC50 was 4.69. Next, `O=C(c1cc(Br)nn1-c1ccc(Br)cc1)N1CCN(c2cccc(Cl)c2)CC1` [Example E64, [5-Bromo-2-(4-bromophenyl)-2H-pyrazol-3-yl][4-(3-chlorophenyl)piperazin-1-yl]methanone]: 5.46; `COc1cc(OC)cc(N2CCN(C(=O)c3cc(Br)nn3-c3ccc(Br)cc3)CC2)c1` [Example E81, [5-Bromo-2-(4-bromophenyl)-2H-pyrazol-3-yl][4-(3,5-dimethoxyphenyl)-piperazin-1-yl]methanone]: 4.77; `COC(=O)CCC(=O)Nc1cccc(N2CCN(C(=O)c3cc(C)nn3-c3ccccc3)CC2)c1` [Example E83, Methyl N-{3-[4-(5-methyl-2-phenyl-2H-pyrazole-3-carbonyl)piperazin-1-yl]-phenyl}succinamate]: 4.70. Next, `O=C(c1cc(CSc2ccccc2)nn1-c1ccccc1)N1CCN(c2cccc(Cl)c2)CC1` [Example E102, [4-(3-Chlorophenyl)piperazin-1-yl](2-phenyl-5-phenylsulfanylmethyl-2H-pyrazol-3-yl)methanone]: 4.74. Then `CCOC(=O)/C=C/c1cc(C(=O)N2CCN(c3cc(OC)cc(OC)c3)CC2)n(-c2ccccc2)n1` [Example E112, Ethyl E-3-{5-[4-(3,5-dimethoxyphenyl)piperazine-1-carbonyl]-1-phenyl-1H-pyrazol-3-yl}acrylate], with 5.52; and `COCOCc1cc(C(=O)N2CCN(c3cccc(C(N)=O)c3)CC2)n(-c2ccccc2)n1` [Example E113, 3-[4-(5-Methoxymethoxymethyl-2-phenyl-2H-pyrazole-3-carbonyl)piperazin-1-yl]benzamide], with 5.04. On to `COc1cc(OC)cc(N2CCN(C(=O)c3cc(-c4ccsc4C=O)nn3-c3ccccc3)CC2)c1` [Example E114, 3-{5-[4-(3,5-Dimethoxyphenyl)piperazine-1-carbonyl]-1-phenyl-1H-pyrazol-3-yl}thiophene-2-carboxaldehyde], for which the pIC50 is 4.89. Then `COc1cc(OC)cc(N2CCN(C(=O)c3cc(CN)nn3-c3ccccc3)CC2)c1` [Example E120, (5-Aminomethyl-2-phenyl-2H-pyrazol-3-yl)[4-(3,5-dimethoxyphenyl)piperazin-1-yl]methanone], with 4.75; and `COc1cc(OC)cc(N2CCN(C(=O)c3cc(COCCF)nn3-c3ccccc3)CC2)c1` [Example E123, [4-(3,5-Dimethoxyphenyl)piperazin-1-yl][5-(2-fluoroethoxymethyl)-2-phenyl-2H-pyrazol-3-yl]methanone], with 5.60. As for `COc1cc(OC)cc(N2CCN(C(=O)c3cc(C(O)C4CCCC4)nn3-c3ccccc3)CC2)c1` (centres unmarked) [Example E124, [5-(Cyclopentylhydroxymethyl)-2-phenyl-2H-pyrazol-3-yl][4-(3,5-dimethoxy-phenyl)piperazin-1-yl]methanone], the pIC50 is > 4.60.

`CCC(O)c1cc(C(=O)N2CCN(c3cc(OC)cc(OC)c3)CC2)n(-c2ccccc2)n1` (centres unmarked) [Example E125, [4-(3,5-Dimethoxyphenyl)piperazin-1-yl][5-(1-hydroxypropyl)-2-phenyl-2H-pyrazol-3-yl]methanone]: the pIC50 was 5.39. Then `COC(=O)/C=C/c1cc(C(=O)N2CCN(c3cc(OC)cc(OC)c3)CC2)n(-c2ccccc2)n1` [Example E126, Methyl E-3-{5-[4-(3,5-dimethoxyphenyl)piperazine-1-carbonyl]-1-phenyl-1H-pyrazol-3-yl}acrylate], with 6.10; and `COc1cc(OC)cc(N2CCN(C(=O)c3cc(C(C)O)nn3-c3ccccc3)CC2)c1` (centres unmarked) [Example E127, [4-(3,5-Dimethoxyphenyl)piperazin-1-yl][5-(1-hydroxyethyl)-2-phenyl-2H-pyrazol-3-yl]methanone], with 5.64; and `COc1cc(OC)cc(N2CCN(C(=O)c3cc(N4CCC4)nn3-c3ccccc3)CC2)c1` [Example E129, [5-(Azetidin-1-yl)-2-phenyl-2H-pyrazol-3-yl][4-(3,5-dimethoxyphenyl)piperazin-1-yl]methanone], with 6.05. Then `C=CCNc1cc(C(=O)N2CCN(c3cc(OC)cc(OC)c3)CC2)n(-c2ccccc2)n1` [Example E130, (5-Allylamino-2-phenyl-2H-pyrazol-3-yl)[4-(3,5-dimethoxyphenyl)piperazin-1-yl]methanone], with 5.82. `COc1cc(OC)cc(N2CCN(C(=O)c3cc(C(O)c4ccccc4)nn3-c3ccccc3)CC2)c1` (centres unmarked) [Example E131, [4-(3,5-Dimethoxyphenyl)piperazin-1-yl][5-(hydroxyphenylmethyl)-2-phenyl-2H-pyrazol-3-yl]methanone]: the pIC50 was > 4.60. Turning to `Cc1cc(C(=O)N2CCN(c3cccc(CO)c3)CC2)n(-c2ccccc2)n1` [Example E132, [4-(3-Hydroxymethylphenyl)piperazin-1-yl](5-methyl-2-phenyl-2H-pyrazol-3-yl)methanone], the pIC50 is 6.05.

As for `NC(=O)c1cccc(N2CCN(C(=O)c3ccnn3-c3ccccc3)CC2)c1` [Example E133, 3-[4-(2-Phenyl-2H-pyrazole-3-carbonyl)piperazin-1-yl]benzamide], the pIC50 was 6.00. Next, `COc1cc(OC)cc(N2CCN(C(=O)c3cc(CC#N)nn3-c3ccccc3)CC2)c1` [Example E135, (5-Cyanomethyl-2-phenyl-2H-pyrazol-3-yl)[4-(3,5-dimethoxyphenyl)piperazin-1-yl]methanone]: 6.30; `Cc1cc(C(=O)N2CCN(c3cccc(OC(F)F)c3)CC2)n(-c2ccccc2)n1` [Example E136, [4-(3-Difluoromethoxyphenyl)piperazin-1-yl](5-methyl-2-phenyl-2H-pyrazol-3-yl)methanone hydrochloride]: 5.89; `COc1cc(OC)cc(N2CCN(C(=O)c3cc(N4CCCCC4)nn3-c3ccccc3)CC2)c1` [Example E138, [4-(3,5-dimethoxyphenyl)piperazin-1-yl][5-(piperid-1-yl)-2-phenyl-2H-pyrazol-3-yl)methanone]: 4.66.
